Results from patent publication US7592357B2, “Compounds” (SmithKline Beecham Corporation, priority 2004, dated 2009).

Target: T1, human recombinant ROCK1 kinase domain (amino acid 2-543) (Homo sapiens, UniProt Q13464)
T1 construct: ROCK1 kinase domain (amino acid 2-543); His-tag; made in house; host or cells: Sf9 cells
Experiment: ROCK Kinase Assay
Assay type: biochemical
Conditions: 1 nM hROCK1, 1 uM ATP, SPA; results recorded as pIC50; range tested 50 uM to 0.8 nM or 10 uM to 0.8 nM
Procedure: ROCK inhibitor activity was determined using human recombinant ROCK1 kinase domain (amino acid 2-543) expressed in Sf9 cells (see WO9967283). The enzyme was purified using His-tag NTA column and Source15 HPLC chromatography. The assay of Rock-1 activity involved incubation with peptide substrate and ATP^33, the subsequent incorporation of P^33 into the peptide was quantified by Scintillation Proximity Assay (SPA—Amersham Pharmacia).
For IC50 determination, test compounds were typically dissolved at 10 mM in 100% DMSO, with subsequent serial dilution in 100% DMSO. Compounds were typically assayed over an eleven point dilution range with a concentration in the assay of 50 uM to 0.8 nM, in 3-fold dilutions. IC50) values were calculated by bespoke curve fitting software and then converted to pIC50. In some cases, compounds were assayed over an eleven point dilution range with a concentration in the assay of 10 uM to 0.8 nM, in 3-fold dilutions. […]
Assays were performed in opaque, white walled, 384 well plates, in a total assay volume of 20 ul. […] P^33 incorporation was quantified by scintillation counting in a Packard TopCount. When the reaction was terminated by addition of a 10 ul solution, P33 incorporation was quantified by luminescence detection using a PerkinElmer Viewlux ultraHTS microplate imager.

T1 sequence (Q13464 2-543): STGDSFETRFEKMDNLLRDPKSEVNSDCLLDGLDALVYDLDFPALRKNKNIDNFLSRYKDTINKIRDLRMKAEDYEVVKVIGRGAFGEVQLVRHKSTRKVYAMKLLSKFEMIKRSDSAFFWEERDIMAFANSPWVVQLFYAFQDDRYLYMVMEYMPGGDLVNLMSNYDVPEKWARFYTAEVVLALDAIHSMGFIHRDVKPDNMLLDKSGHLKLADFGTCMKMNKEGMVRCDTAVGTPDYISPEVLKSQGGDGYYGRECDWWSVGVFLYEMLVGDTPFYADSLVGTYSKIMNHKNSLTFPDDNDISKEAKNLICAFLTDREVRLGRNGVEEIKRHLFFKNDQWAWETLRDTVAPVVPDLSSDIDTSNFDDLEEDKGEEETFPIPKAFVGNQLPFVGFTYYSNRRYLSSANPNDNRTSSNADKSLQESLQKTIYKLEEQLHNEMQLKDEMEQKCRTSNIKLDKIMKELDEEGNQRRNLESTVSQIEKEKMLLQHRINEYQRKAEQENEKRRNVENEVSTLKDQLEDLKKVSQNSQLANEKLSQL

COc1cccc(CN2C(=O)CC(c3ccc(C(F)(F)F)cc3)C(C(=O)Nc3cc4cn[nH]c4cc3F)=C2C)c1 (stereo not shown) [Example 104, N-(6-Fluoro-1H-indazol-5-yl)-2-methyl-1-{[3-(methyloxy)phenyl]methyl}-6-oxo-4-[4-(trifluoromethyl)phenyl]-1,4,5,6-tetrahydro-3-pyridinecarboxamide]
activity in the ROCK kinase assay: not active
